From patent publication US20150038589A1, “Nutritional Product Comprising a Biguanide” (priority 2011, published 2015)

What was measured:
[1] = Cookie comprising metformin consumed by human volunteers; blood samples; format: in vivo; conditions: one cookie (250 mg metformin); for concentration at 1 h / concentration at 2 h / concentration at 4 h / concentration at 0 h: human, blood, oral, 250 mg, empty stomach; for concentration at 1 h: 1 hr after consumption; for concentration at 2 h: 2 hrs after consumption; for concentration at 4 h: 4 hrs after consumption; for concentration at 0 h: before consumption
Description: A cookie dough was prepared comprising 1000 mg fine-ground metformin per 100 g conventional cookie dough, by mixing fine-ground metformin into the dough. 40 droplets of lemon juice per 100 g dough were added to the dough comprising the metformin, in order to neutralise the bitter taste of the metformin. Thereafter, the dough was divided in pieces of 25 g, from which pieces cookies were baked in a conventional way.
Human volunteers each consumed one cookie (providing 250 mg metformin) on an empty stomach. Blood samples were taken before consumption, 1 hour after consumption, 2 hours after consumption and 4 hours after consumption.

[2] = Clinical test: double-blind trial of yoghurt drink with added metformin, 6 weeks; conditions: for Hyperinsulinaemia Internationale Unit / fasting glucose: change after 42 days
[3] = cited from earlier work
[4] = Stability test of metformin in yoghurt (pH and metformin content); format: physicochemical
Description: Yoghurt is prepared as described in Example 3. A batch comprising no metformin (placebo), a batch comprising 200 mg metformin per 100 gram (low dosage) and a batch comprising 360 mg metformin (high dosage) were made.
Part of the batches were stored in a fridge (about 4° C.), other parts at room temperature (about 20° C.). Product stability was determined by measuring pH and the metformin content (measured amount as a percentage of the added amount), weekly for a period of 35 days. […] Stability at room temperature was determined for only 35 days. Tables 6 and 7 show the measured amount of metformin in both products comprising metformin (relative to calculated amount=100%). No metformin was measured in the placebo.

[5] = up to 4 hours after consumption
[6] = Trial group I (n = 6), 250 mg metformin/day in yoghurt, after 42 days
[7] = Trial group I (n = 6), 250 mg metformin/day in yoghurt
[8] = Trial group II (n = 4), 450 mg metformin/day in yoghurt, after 42 days
[9] = Trial group II (n = 4), 450 mg metformin/day in yoghurt
[10] = subjects with the product of the invention, after 42 days

- concentration at 1 h ([1]; subject 1): < 500 ng/mL
- concentration at 2 h ([1]; subject 1): 700 ng/mL
- concentration at 4 h ([1]; subject 1): 800 ng/mL
- concentration at 0 h ([1]; subject 1): < 500 ng/mL
- concentration at 1 h ([1]; subject 2): < 500 ng/mL
- concentration at 2 h ([1]; subject 2): < 500 ng/mL
- concentration at 4 h ([1]; subject 2): 600 ng/mL
- concentration at 0 h ([1]; subject 2): < 500 ng/mL
- concentration at 24 h ([2]; both, human, blood, oral): < 250 ng/mL
- degradation of metformin in a fermented (acidic) product ([4]; 28 days (room temperature) or 35 days (refrigerator temperature)): no substantial degradation
- storage stability in a nutritional product ([4]; metformin included in a nutritional product): at least 5 weeks
Compound: CN(C)C(=N)NC(=N)N [metformin, N,N-dimethylimidodicarbonimidic diamide]
- negative side-effects ([1]; during the experiment): no negative side-effects were observed
- glucose levels in blood samples [1, 5]: no significant changes
- lipid levels in blood samples [1, 5]: no significant changes
- insulin resistance improvement (HOMA-2) [2, 6]: −0.13
- side-effects: abdominal pain (number of subjects) [2, 6]: 0
- side-effects: diarrhoea (number of subjects) [2, 6]: 0
- side-effects: fatigue (number of subjects) [2, 6]: 0
- side-effects: reflux (number of subjects) [2, 6]: 0
- side-effects: stomach pain (number of subjects) [2, 6]: 1
- side-effects: vertigo (number of subjects) [2, 6]: 0
- Δ waist size [2, 6]: −2.0 cm
- Δ weight [2, 6]: -1.9 kg
- Hyperinsulinaemia Internationale Unit [2, 7]: −1.4 Internationale Unit
- fasting glucose [2, 7]: -0.12 mmol/L
- insulin resistance improvement (HOMA-2) [2, 8]: −3.9
- side-effects: abdominal pain (number of subjects) [2, 8]: 0
- side-effects: diarrhoea (number of subjects) [2, 8]: 0
- side-effects: fatigue (number of subjects) [2, 8]: 0
- side-effects: reflux (number of subjects) [2, 8]: 0
- side-effects: stomach pain (number of subjects) [2, 8]: 0
- side-effects: vertigo (number of subjects) [2, 8]: 0
- Δ waist size [2, 8]: −3.1 cm
- Δ weight [2, 8]: -1.9 kg
- Hyperinsulinaemia Internationale Unit [2, 9]: −3.9 Internationale Unit
- fasting glucose [2, 9]: -0.68 mmol/L
- subjects indicating a reduced appetite ([2]; out of 10 subjects in the trial group (1 in the placebo group)): 4
- reduction in waist size compared to the placebo [2, 10]: 2-3 fold
- weight loss compared to the placebo [2, 10]: 3 fold
- blood HDL concentration change ([2]; trial group I, after 42 days): No change
- decrease in pulse ([2]; trial group I, after 42 days): −6
- blood HDL concentration change ([2]; trial group II (450 mg metformin per day), after 42 days): +0.12
- decrease in pulse ([2]; trial group II, after 42 days): −2
- subjects with a reduction in B12 levels in blood ([3]; conventional dosage form such as a tablet): about 30%
- subjects suffering from stomach complaints and diarrhoea ([3]; conventional pharmaceutical composition comprising biguanide (metformin)): roughly 30%
